Read-outs that look alike come from different tables or passages of the source.
Assays:
human CB2 receptors = biological target: T1, human CB2 receptors (Homo sapiens, UniProt P34972); experiment: cAMP assay in HEK-293 cells, hCB2 agonist; type: cell-based
T1 construct: (cDNA clone) CNR0200000
Description: (§1) Functional assays which monitor G-protein coupled receptor or downstream cellular responses can be used to characterize potential CB1 receptor and/or CB2 receptor agonist or antagonist activities. Direct activation (or inhibition of activation) can be monitored using a GTPγS assay (membrane-based assay) or cAMP assay (whole cell-based assay).
cAMP assays were performed in HEK-293 cells stably expressing human CB1 or CB2 receptors. […] Cells suspensions were centrifuged and the cells were washed once with PBS, were centrifuged again, and the cells were re-suspended in HBSS (Hank's Balanced Salt Solution, Cellgro, Cat #21-022-CV) solution containing 10 mM HEPES and 0.1% fatty acid free BSA (Sigma, Cat #A0281). Cell suspensions were prepared at 1,500,000 cells per ml. Stock solutions of test substances (10 mM) in DMSO were diluted to 1 mM using 30% DMSO as diluent. Test substances of solutions (1 mM) were further diluted down to 3× of final assay concentrations in the above HBSS buffer containing 0.1% BSA in the presence of 90 uM forskolin (Sigma Cat#F6886). To perform the assay, 20 uL of cell suspension (1,500,000 cells/mL) were added to each well in 96 well plate and treated with 10 uL test substance solution diluted as described above. Cells and compounds were incubated at 37° C. for 30 minutes. Cells were lysed and cAMP concentration was measured using DiscoveRx −XS+ cAMP assay kit (DiscoveRx Corporation Ltd., Fremont, Calif., USA, Cat #90-0075-03), following the manufacturer's protocol. GraphPad Prism software was used to calculate EC50 values using sigmoidal dose response curve fitting. The maximal amount of cAMP produced by forskolin was defined as 100%.

human CB1 receptors = biological target: T2, human CB1 receptors (Homo sapiens, UniProt P21554); experiment: cAMP assay in HEK-293 cells, hCB1 agonist; type: cell-based; settings: inhibition of forskolin-stimulated cAMP, HEK-293 cells
T2 construct: (cDNA clone) CNR01L000
Description: (§2) Stable, HEK-293-derived cell lines that recombinantly express hCBI or hCB2 were established. In brief, the clone hCB1 (CNR IL) or hCB2 (CNR2) was transfected into human embryonic kidney cells (HEK-293) using Lipofectamine 2000 (Gibco, Cat#11668-019) according to the manufacturer's protocol. Transfected clones were isolated by single colony purification and clones were screened for receptor expression using a whole cell, ^3H—CP 55,940 radioligand binding assay. HEK-293 stable cells were maintained in Dulbecco's modified Eagles medium (DMEM) containing 10% fetal bovine serum, 2 mM L-glutamine and 0.5 mg/mL G-418.
as §1
cAMP assays were performed in HEK-293 cells stably expressing human CB1 or CB2 receptors. For cannabinoid receptor functional assays measuring agonist effects on cellular cAMP levels, monolayers of cultured cells were harvested with enzyme-free PBS-based cell dissociation buffer (Gibco, Cat#13151-04). Cells suspensions were centrifuged and the cells were washed once with PBS, were centrifuged again, and the cells were re-suspended in HBSS (Hank's Balanced Salt Solution, Cellgro, Cat #21-022-CV) solution containing 10 mM HEPES and 0.1% fatty acid free BSA (Sigma, Cat #A0281). Cell suspensions were prepared at 1,500,000 cells per ml. Stock solutions of test substances (10 mM) in DMSO were diluted to 1 mM using 30% DMSO as diluent. Test substances of solutions (1 mM) were further diluted down to 3× of final assay concentrations in the above HBSS buffer containing 0.1% BSA in the presence of 90 uM forskolin (Sigma Cat#F6886). To perform the assay, 20 uL of cell suspension (1,500,000 cells/mL) were added to each well in 96 well plate and treated with 10 uL test substance solution diluted as described above. Cells and compounds were incubated at 37° C. for 30 minutes. Cells were lysed and cAMP concentration was measured using DiscoveRx −XS+ cAMP assay kit (DiscoveRx Corporation Ltd., Fremont, Calif., USA, Cat #90-0075-03), following the manufacturer's protocol. GraphPad Prism software was used to calculate EC50 values using sigmoidal dose response curve fitting. The maximal amount of cAMP produced by forskolin was defined as 100%. CB1 or CB2 agonists reduced forskolin-stimulated cAMP signaling. The EC50 value of an agonist compound was defined as the concentration at which 50% of the forskolin-stimulated cAMP synthesis was inhibited.

[1] = biological target: T3, recombinant human cannabinoid receptor CB2 (Homo sapiens, UniProt P34972); experiment: Cannabinoid receptor radioligand binding assay, [3H]-CP 55,940 displacement, hCB2
T3 construct: (cDNA clone) CNR0200000
Description: Membranes were isolated from transfected cells as follows. Monolayers of cultured cells were washed twice with phosphate-buffered saline (PBS). […] Homogenates were centrifuged 10 minutes at 1000×g at 4° C. The supernatant was collected and was centrifuged for 1 hour at 40,000×g. The supernatant was then decanted and the resulting pellet was re-suspended in 20 mM HEPES, pH 7.4, 5 mM MgCl2, 1 mM EDTA, 10% sucrose with complete cocktail protease inhibitors. Protein concentration of membrane suspensions were measured by Bradford Protein Assay using bovine serum albumin as the standard (BioRad catalog #500-0006). Protein concentrations of membrane suspensions were adjusted with the final buffer in the range of 5 to 10 mg/mL and were stored at −80° C. until further use.
A rapid filtration technique using Millipore FB filter plates (Catalog #MADVNOB) and filtration apparatus (Millipore system Catalog MAVM0960R) with vacuum aspiration was used to harvest and rinse labeled membranes (8 times with 0.2 mL of chilled binding buffer). […] Binding data were analyzed using GraphPad Prism (GraphPad Software, Inc. San Diego, Calif.).

[2] = biological target: T4, recombinant human cannabinoid receptor CB1 (Homo sapiens, UniProt P21554); experiment: Cannabinoid receptor radioligand binding assay, [3H]-CP 55,940 displacement, hCB1
T4 construct: (cDNA clone) CNR01L000
Description: as §2
Membranes were isolated from transfected cells as follows. Monolayers of cultured cells were washed twice with phosphate-buffered saline (PBS). Cells were scraped into 20 mM HEPES, pH 7.4, 10 mM EDTA containing complete cocktail protease inhibitors (Roche, Catalog #11 697 498 001) and were homogenized by an electric-powered mechanical probe homogenizer (Omni GLH; probe G7-195S) for 40 seconds at 7000 rpm. Homogenates were centrifuged 10 minutes at 1000×g at 4° C. The supernatant was collected and was centrifuged for 1 hour at 40,000×g. The supernatant was then decanted and the resulting pellet was re-suspended in 20 mM HEPES, pH 7.4, 5 mM MgCl2, 1 mM EDTA, 10% sucrose with complete cocktail protease inhibitors. Protein concentration of membrane suspensions were measured by Bradford Protein Assay using bovine serum albumin as the standard (BioRad catalog #500-0006). Protein concentrations of membrane suspensions were adjusted with the final buffer in the range of 5 to 10 mg/mL and were stored at −80° C. until further use.
Radioligand binding assays were performed by incubating membranes (2-10 μg protein) prepared from HEK-293 cells expressing recombinant human cannabinoid receptors, CB1 or CB2, at room temperature with 0.5 nM cannabinoid receptor agonist, [^3H]-CP 55,940 (Perkin Elmer, catalog #NET1051) in 0.2 mL of binding buffer (50 mM Tris-HCl, pH 7.5, 5 mM MgCl2, 2.5 mM EDTA) and 0.1% fatty acid free bovine serum albumin (Sigma Cat. #A0821) for 90 minutes. A rapid filtration technique using Millipore FB filter plates (Catalog #MADVNOB) and filtration apparatus (Millipore system Catalog MAVM0960R) with vacuum aspiration was used to harvest and rinse labeled membranes (8 times with 0.2 mL of chilled binding buffer). The radioactivity bound to the filters was counted with 0.05 mL of liquid scintillant (UltraGold MV, PerkinElmer catalog #6013159) in a scintillation counter (Perkin Elmer Microbeta instrument). Nonspecific binding was determined in the presence of unlabeled 1 μM CP 55,940 (Sigma Aldrich, catalog #C1112). Binding data were analyzed using GraphPad Prism (GraphPad Software, Inc. San Diego, Calif.).

[3] = displacement of 0.5 nM [3H]-CP 55,940, read-out: hCB2 IC50 (CP displ)
[4] = displacement of 0.5 nM [3H]-CP 55,940, read-out: hCB1 IC50 (CP displ)

T1 sequence (P34972 whole entry): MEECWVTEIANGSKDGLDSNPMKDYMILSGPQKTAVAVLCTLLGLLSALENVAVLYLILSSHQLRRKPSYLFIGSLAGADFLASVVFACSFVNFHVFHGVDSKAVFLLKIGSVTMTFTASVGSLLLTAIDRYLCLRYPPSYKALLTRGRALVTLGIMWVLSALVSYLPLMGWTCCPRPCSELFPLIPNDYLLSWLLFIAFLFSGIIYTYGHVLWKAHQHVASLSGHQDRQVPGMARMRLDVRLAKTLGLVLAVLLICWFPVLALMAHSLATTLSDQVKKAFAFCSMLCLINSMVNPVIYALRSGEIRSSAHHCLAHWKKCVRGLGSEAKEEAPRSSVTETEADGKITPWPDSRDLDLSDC
T3 sequence (P34972 whole entry): as above
T2 sequence (P21554 whole entry): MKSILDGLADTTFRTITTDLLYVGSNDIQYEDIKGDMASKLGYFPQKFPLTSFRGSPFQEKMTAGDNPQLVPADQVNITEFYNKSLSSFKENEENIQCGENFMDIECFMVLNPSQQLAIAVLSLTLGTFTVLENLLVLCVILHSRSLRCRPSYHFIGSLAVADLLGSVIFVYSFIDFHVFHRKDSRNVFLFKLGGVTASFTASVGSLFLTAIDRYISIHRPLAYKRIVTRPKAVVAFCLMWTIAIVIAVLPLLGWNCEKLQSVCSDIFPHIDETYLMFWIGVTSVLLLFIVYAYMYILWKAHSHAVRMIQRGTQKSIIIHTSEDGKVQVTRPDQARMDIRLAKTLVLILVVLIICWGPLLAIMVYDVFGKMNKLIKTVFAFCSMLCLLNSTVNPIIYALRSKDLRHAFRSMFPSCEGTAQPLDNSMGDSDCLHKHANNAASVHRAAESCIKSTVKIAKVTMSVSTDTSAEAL
T4 sequence (P21554 whole entry): as above

| Structure (SMILES) | EC50 (human CB2 receptors) [µM] | hCB1 EC50 (cAMP ag, nM) (human CB1 receptors) | IC50 [1, 3] [µM] | IC50 [2, 4] [µM] | IC50 [1] [µM] | IC50 [2] [µM] | EC50 (human CB1 receptors; read-out: hCB1 EC50 (cAMP ag)) [µM] | hCB2 EC50 (cAMP ag, nM) (human CB2 receptors; inhibition of forskolin-stimulated cAMP, HEK-293 cells) |
| --- | --- | --- | --- | --- | --- | --- | --- | --- |
| Cc1cc2cc(C(=O)c3cccc(Cl)c3Cl)sc2[nH]1 [Compound 2, (2,3-dichlorophenyl)(5-methyl-6H-thieno[2,3-b]pyrrol-2-yl)methanone] | 1 to 10 | NS (NS means “Not Significant,” which means less than 30% agonist activity when compared to the positive control.) | 1 to 10 | > 10 |  |  |  |  |
| Cc1cc2cc(C(=O)c3cccnc3)sc2n1CCN1CCOCC1 [Compound 14, (5-Methyl-6-(2-morpholinoethyl)-6H-thieno[2,3-b]pyrrol-2-yl)(pyridin-3-yl)methanone] | 0.1 to 1 | NS (NS means “Not Significant,” which means less than 30% agonist activity when compared to the positive control.) |  |  | 1 to 10 | > 10 |  |  |
| Cc1cc2cc(C(=O)c3ccccn3)sc2n1CCN1CCOCC1 [Compound 16] | 0.1 to 1 | NS (NS means “Not Significant,” which means less than 30% agonist activity when compared to the positive control.) |  |  | 1 to 10 | > 10 |  |  |
| Cc1cc2cc(C(=O)c3cccc(Cl)c3Cl)sc2n1CC(=O)N1CCOCC1 [Compound 22, 2-(2-(2,3-Dichlorobenzoyl)-5-methyl-6H-thieno[2,3-b]pyrrol-6-yl)-1-morpholinoethanone] | 0.1 to 1 |  |  |  | 1 to 10 | > 10 | 0.1 to 1 |  |
| Cc1cc2cc(C(=O)c3ccncn3)sc2n1CCN1CCOCC1 [Compound 34, (5-Methyl-6-(2-morpholinoethyl)-6H-thieno[2,3-b]pyrrol-2-yl)(pyrimidin-4-yl)methanone] | 1 to 10 | NS (NS means “Not Significant,” which means less than 30% agonist activity when compared to the positive control.) | > 10 | > 10 |  |  |  |  |
| Cc1cc2cc(C(=O)c3ccncc3)sc2n1CCN1CCOCC1 [Compound 40, (5-Methyl-6-(2-morpholinoethyl)-6H-thieno[2,3-b]pyrrol-2-yl)(pyridin-4-yl)methanone] | 0.1 to 1 | NS (NS means “Not Significant,” which means less than 30% agonist activity when compared to the positive control.) |  |  | 1 to 10 | > 10 |  |  |
| COc1ccc(C(=O)c2cc3cc(C)n(CCC(=O)O)c3s2)cc1 [Compound 73, 3-(2-(4-Methoxybenzoyl)-5-methyl-6H-thieno[2,3-b]pyrrol-6-yl)propanoic acid] |  | NS (NS means “Not Significant,” which means less than 30% agonist activity when compared to the positive control.) | > 10 | > 10 |  |  |  | NS (NS means “Not Significant,” which means less than 30% agonist activity when compared to the positive control.) |
| CCS(=O)(=O)NCCCn1c(C)cc2cc(C(=O)c3ccc(OC)cc3)sc21 [Compound 74, N-(3-(2-(4-Methoxybenzoyl)-5-methyl-6H-thieno[2,3-b]pyrrol-6-yl)propyl)ethanesulfonamide] | 0.1 to 1 | NS (NS means “Not Significant,” which means less than 30% agonist activity when compared to the positive control.) |  |  | 1 to 10 | > 10 |  |  |
| COc1ccc(C(=O)c2cc3cc(C)[nH]c3s2)c(Cl)c1 [Compound 79, (2-Chloro-4-methoxyphenyl)(5-methyl-6H-thieno[2,3-b]pyrrol-2-yl)methanone] | 0.1 to 1 | NS (NS means “Not Significant,” which means less than 30% agonist activity when compared to the positive control.) |  |  | > 10 | > 10 |  |  |
| COc1ccc(C(=O)c2cc3cc(C)n(CCN4CCOCC4=O)c3s2)cn1 [Compound 148, 4-(2-(2-(6-methoxynicotinoyl)-5-methyl-6H-thieno[2,3-b]pyrrol-6-yl)ethyl)morpholin-3-one] |  | NS (NS means “Not Significant,” which means less than 30% agonist activity when compared to the positive control.) | > 10 | > 10 |  |  |  |  |

Reference: patent US20130029970A1 (priority 2009, published 2013)
